Test results published in PubChem BioAssay (NCI).
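How tested: cells in 96-well plates exposed to compound for 48 hours at five concentrations. TGI is the concentration that stops growth completely.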

What was measured:
Experiment in all cases: NCI-60 cell line screen, 48 h
LOX IMVI melanoma = system: LOX IMVI melanoma
EKVX NSCLC = system: EKVX NSCLC
MALME-3M melanoma = system: MALME-3M melanoma
HT29 colon = system: HT29 colon
KM20L2 colon = system: KM20L2 colon
DMS 114 small cell lung = system: DMS 114 small cell lung
M19-MEL melanoma = system: M19-MEL melanoma
UO-31 renal = system: UO-31 renal
LXFL 529 NSCLC = system: LXFL 529 NSCLC
SK-MEL-5 melanoma = system: SK-MEL-5 melanoma
RXF-631 renal = system: RXF-631 renal
UACC-257 melanoma = system: UACC-257 melanoma
RXF 393 renal = system: RXF 393 renal
COLO 205 colon = system: COLO 205 colon
IGROV1 ovarian = system: IGROV1 ovarian
NCI-H23 lung = system: NCI-H23 lung
HOP-18 NSCLC = system: HOP-18 NSCLC
HOP-92 NSCLC = system: HOP-92 NSCLC
XF 498 CNS = system: XF 498 CNS
MOLT-4 leukemia = system: MOLT-4 leukemia
SN12C renal = system: SN12C renal
DMS 273 small cell lung = system: DMS 273 small cell lung
OVCAR-8 ovarian = system: OVCAR-8 ovarian
NCI-H522 lung = system: NCI-H522 lung
HCT-116 colon = system: HCT-116 colon
OVCAR-3 ovarian = system: OVCAR-3 ovarian
SK-MEL-28 melanoma = system: SK-MEL-28 melanoma
786-0 renal = system: 786-0 renal
SF-295 CNS = system: SF-295 CNS
SF-268 CNS = system: SF-268 CNS
A498 renal = system: A498 renal
TK-10 renal = system: TK-10 renal
UACC-62 melanoma = system: UACC-62 melanoma
HOP-62 NSCLC = system: HOP-62 NSCLC
HL-60(TB) leukemia = system: HL-60(TB) leukemia
NCI-H226 lung = system: NCI-H226 lung
KM12 colon = system: KM12 colon
K-562 leukemia = system: K-562 leukemia
SF-539 CNS = system: SF-539 CNS
ACHN renal = system: ACHN renal
SK-OV-3 ovarian = system: SK-OV-3 ovarian
SNB-78 CNS = system: SNB-78 CNS
SW-620 colon = system: SW-620 colon
SK-MEL-2 melanoma = system: SK-MEL-2 melanoma
DLD-1 colon = system: DLD-1 colon
M14 melanoma = system: M14 melanoma
A549 NSCLC = system: A549 NSCLC
RPMI-8226 leukemia = system: RPMI-8226 leukemia
SNB-75 CNS = system: SNB-75 CNS
HCC-2998 colon = system: HCC-2998 colon
U251 CNS = system: U251 CNS
NCI-H460 lung = system: NCI-H460 lung
CCRF-CEM leukemia = system: CCRF-CEM leukemia
OVCAR-5 ovarian = system: OVCAR-5 ovarian
CAKI-1 renal = system: CAKI-1 renal
OVCAR-4 ovarian = system: OVCAR-4 ovarian
SNB-19 CNS = system: SNB-19 CNS
HCT-15 colon = system: HCT-15 colon

CCOC(OC(C)=O)[C@@H]1C=C[C@H](C)N(c2ccc([N+](=O)[O-])cc2)O1 (stereo partly drawn)
TGI (LOX IMVI melanoma): 4.12 µM
TGI (EKVX NSCLC): 39 µM
TGI (MALME-3M melanoma): 20.1 µM
TGI (HT29 colon): 11.4 µM
TGI (KM20L2 colon): 34.3 µM
TGI (DMS 114 small cell lung): 16.9 µM
TGI (M19-MEL melanoma): 5.3 µM
TGI (UO-31 renal): 9.16 µM
TGI (LXFL 529 NSCLC): 10.8 µM
TGI (SK-MEL-5 melanoma): 13.4 µM
TGI (RXF-631 renal): 25.7 µM
TGI (UACC-257 melanoma): 26.9 µM
TGI (RXF 393 renal): 22.4 µM
TGI (COLO 205 colon): 27.7 µM
TGI (IGROV1 ovarian): 29 µM
TGI (NCI-H23 lung): 16.2 µM
TGI (HOP-18 NSCLC): 17.8 µM
TGI (HOP-92 NSCLC): 16.2 µM
TGI (XF 498 CNS): 32.6 µM
TGI (MOLT-4 leukemia): 5.49 µM
TGI (SN12C renal): 22.3 µM
TGI (DMS 273 small cell lung): 13.4 µM
TGI (OVCAR-8 ovarian): 4.55 µM
TGI (NCI-H522 lung): 8.97 µM
TGI (HCT-116 colon): 2610 nM
TGI (OVCAR-3 ovarian): 15.7 µM
TGI (SK-MEL-28 melanoma): 9.62 µM
TGI (786-0 renal): 7.23 µM
TGI (SF-295 CNS): 27.4 µM
TGI (SF-268 CNS): 15.6 µM
TGI (A498 renal): > 59.4 µM
TGI (TK-10 renal): 14 µM
TGI (UACC-62 melanoma): 7.55 µM
TGI (HOP-62 NSCLC): 31.6 µM
TGI (HL-60(TB) leukemia): 4.79 µM
TGI (NCI-H226 lung): 14 µM
TGI (KM12 colon): 7.82 µM
TGI (K-562 leukemia): > 26.7 µM
TGI (SF-539 CNS): 8.44 µM
TGI (ACHN renal): 13 µM
TGI (SK-OV-3 ovarian): 35.3 µM
TGI (SNB-78 CNS): 60.4 µM
TGI (SW-620 colon): 9.2 µM
TGI (SK-MEL-2 melanoma): 13.5 µM
TGI (DLD-1 colon): 11.1 µM
TGI (M14 melanoma): 9.44 µM
TGI (A549 NSCLC): 43.4 µM
TGI (RPMI-8226 leukemia): 5.45 µM
TGI (SNB-75 CNS): 25.9 µM
TGI (HCC-2998 colon): 26.3 µM
TGI (U251 CNS): 9 µM
TGI (NCI-H460 lung): 34.2 µM
TGI (CCRF-CEM leukemia): > 21.8 µM
TGI (OVCAR-5 ovarian): 10.4 µM
TGI (CAKI-1 renal): 24.3 µM
TGI (OVCAR-4 ovarian): 15.4 µM
TGI (SNB-19 CNS): 37.4 µM
TGI (HCT-15 colon): 6.77 µM
